{"source": "patent US11083725B2", "about": "(priority 2014, dated 2021)", "test_system": "NHBE cells", "assay": "Biolog metabolic array: substrate use by NHBE cells with or without CA09 infection", "assay_type": "cell-based, human", "key": {"[1]": {"conditions": "Control (uninfected) NHBE cells"}, "[2]": {"conditions": "Virus (CA09-infected NHBE cells, MOI 1)"}, "[3]": {"conditions": "Virus: CA09-infected NHBE cells, MOI 1, Biolog PMM2"}}, "data": [{"smiles": "O=C(O)CCC(=O)C(=O)O", "note": "[a-Keto-Glutaric Acid]", "values": [{"measurement": "590 nm absorbance normalized to zero hour (substrate use), 0 hr", "setting": "[1]", "result": 1.00}, {"measurement": "590 nm absorbance normalized to zero hour (substrate use), 1 hr", "setting": "[1]", "result": 1.29}, {"measurement": "590 nm absorbance normalized to zero hour (substrate use), 2 hr", "setting": "[1]", "result": 1.54}, {"measurement": "590 nm absorbance normalized to zero hour (substrate use), 3 hr", "setting": "[1]", "result": 1.40}, {"measurement": "590 nm absorbance normalized to zero hour (substrate use), 4 hr", "setting": "[1]", "result": 1.45}, {"measurement": "590 nm absorbance normalized to zero hour (substrate use), 6 hr", "setting": "[1]", "result": 1.98}, {"measurement": "590 nm absorbance normalized to zero hour (substrate use), 8 hr", "setting": "[1]", "result": 1.69}, {"measurement": "590 nm absorbance normalized to zero hour (substrate use), 9 hr", "setting": "[1]", "result": 1.80}, {"measurement": "590 nm absorbance normalized to zero hour (substrate use), 10 hr", "setting": "[1]", "result": 1.93}, {"measurement": "590 nm absorbance normalized to zero hour (substrate use), 11 hr", "setting": "[1]", "result": 2.00}, {"measurement": "Substrate use, 590 nm absorbance normalized to zero hour, 0 hr", "setting": "Control (uninfected) NHBE cells, Biolog PMM2, 0 hr", "result": 1.00}, {"measurement": "Substrate use, 590 nm absorbance normalized to zero hour, 1 hr", "setting": "Control (uninfected) NHBE cells, Biolog PMM2, 1 hr", "result": 1.29}, {"measurement": "Substrate use, 590 nm absorbance normalized to zero hour, 5 hr", "setting": "Control (uninfected) NHBE cells, Biolog PMM2, 5 hr", "result": 1.52}, {"measurement": "Substrate use, 590 nm absorbance normalized to zero hour, 7 hr", "setting": "Control (uninfected) NHBE cells, Biolog PMM2, 7 hr", "result": 1.61}, {"measurement": "590 nm absorbance normalized to zero hour (substrate use), 0 hr", "setting": "[2]", "result": 1.00}, {"measurement": "590 nm absorbance normalized to zero hour (substrate use), 1 hr", "setting": "[2]", "result": 0.28}, {"measurement": "590 nm absorbance normalized to zero hour (substrate use), 2 hr", "setting": "[2]", "result": 0.37}, {"measurement": "590 nm absorbance normalized to zero hour (substrate use), 3 hr", "setting": "[2]", "result": 0.45}, {"measurement": "590 nm absorbance normalized to zero hour (substrate use), 4 hr", "setting": "[2]", "result": 0.46}, {"measurement": "590 nm absorbance normalized to zero hour (substrate use), 5 hr", "setting": "[2]", "result": 0.51}, {"measurement": "590 nm absorbance normalized to zero hour (substrate use), 6 hr", "setting": "[2]", "result": 0.54}, {"measurement": "590 nm absorbance normalized to zero hour (substrate use), 7 hr", "setting": "[2]", "result": 0.56}, {"measurement": "590 nm absorbance normalized to zero hour (substrate use), 8 hr", "setting": "[2]", "result": 0.58}, {"measurement": "590 nm absorbance normalized to zero hour (substrate use), 9 hr", "setting": "[2]", "result": 0.64}, {"measurement": "590 nm absorbance normalized to zero hour (substrate use), 10 hr", "setting": "[2]", "result": 0.64}, {"measurement": "590 nm absorbance normalized to zero hour (substrate use), 11 hr", "setting": "[2]", "result": 0.69}, {"measurement": "590 nm absorbance normalized to zero hour (substrate use), 0 hr", "setting": "[3]", "result": 1.00}, {"measurement": "590 nm absorbance normalized to zero hour (substrate use), 1 hr", "setting": "[3]", "result": 0.28}, {"measurement": "590 nm absorbance normalized to zero hour (substrate use), 2 hr", "setting": "[3]", "result": 0.37}, {"measurement": "590 nm absorbance normalized to zero hour (substrate use), 3 hr", "setting": "[3]", "result": 0.45}, {"measurement": "590 nm absorbance normalized to zero hour (substrate use), 4 hr", "setting": "[3]", "result": 0.46}, {"measurement": "590 nm absorbance normalized to zero hour (substrate use), 5 hr", "setting": "[3]", "result": 0.51}, {"measurement": "590 nm absorbance normalized to zero hour (substrate use), 6 hr", "setting": "[3]", "result": 0.54}, {"measurement": "590 nm absorbance normalized to zero hour (substrate use), 7 hr", "setting": "[3]", "result": 0.56}, {"measurement": "590 nm absorbance normalized to zero hour (substrate use), 8 hr", "setting": "[3]", "result": 0.58}, {"measurement": "590 nm absorbance normalized to zero hour (substrate use), 9 hr", "setting": "[3]", "result": 0.64}, {"measurement": "590 nm absorbance normalized to zero hour (substrate use), 10 hr", "setting": "[3]", "result": 0.64}, {"measurement": "590 nm absorbance normalized to zero hour (substrate use), 11 hr", "setting": "[3]", "result": 0.69}]}]}
